Patent publication US4885284A, “Dihydropyridine-5-phosphonic acid cyclic propylene ester” (Nissan Chemical Industries Ltd., priority 1986, dated 1989)
Counter-ions that a name gives are not always drawn.

What was measured:
[1] = system: taenia caecum of guinea pig; assay: Calcium antagonistic effect (relaxation of CaCl2-induced contraction in K+-depolarized taenia caecum); format: cell-based; conditions: Cavia porcellus; -log ID50 (M); 50% relaxation relative to maximum relaxation by 10^-4 M papaverine; 37° C, 10 mM CaCl2; read-out: pID50 (calcium antagonistic effect) (converted)
Procedure: 10 mm in situ length of taenia caecum of guinea pig was suspended at a tension of 1 g in a 20 ml organ bath filled with a physiological salt solution (NaCl: 135 mM, KCl: 5 mM etc.).
This solution was bubbled with a gas mixture of 95% O2 -5% CO2 and kept at 37° C. Then, the preparation was depolarized by a K^+ rich solution (NaCl: 40 mM, KCl: 100 mM). After 10-20 minutes equilibration period, 10 mM of CaCl2 was added to the bathing solution. The contraction was produced, and then the test compound applied cumulatively. The relaxation produced was expressed as percentage of the maximum relaxation produced by 10^-4 M papaverine, and the concentration of the compound producing 50% relaxation, i.e. ID50 (M), was calculated.

[2] = system: male spontaneously hypertensive rat (SHR); assay: Antihypertensive effect (systolic blood pressure, tail cuff method, oral, SHR); format: in vivo; conditions: systolic blood pressure at 2, 4, 6 and 8 hours
Procedure: After oral administration of the test compound dissolved in a H2 O-PEG 400 solvent mixture (H2 O:PEG 400 (w/w)=1:3) to the male spontaneously hypertensive rat (SHR), the systolic blood pressure was measured at 2, 4, 6 and 8 hours after the administration of the test compounds by a tail cuff method. Prior to the measurement, rats were warmed at 50° C. for five minutes. The effectively antihypertensive activities were observed also at 8 hours after the administraton of the test compounds. Test 2: Acute toxicity test

[3] = Acute toxicity test (oral LD50); conditions: mouse, in vivo; oral (5% solution), male ddY mice, seven days, Litchfield-Wilcoxon
Procedure: ddY mice (.male., 4 weeks old) were divided into groups of five mice and the test compound dissolved in purified water was administered orally (5% solution) (p.o) to the male ddY mice.
After seven days, LD50 values were calculated from the dead […] recorded in the individual dosage groups by the method of Litchfield-Wilcoxon.

Row | Structure (SMILES) | IC50 [1] [M] | Antihypertensive effect, maximum decrease ([2]; dose 15 mg/kg) [%] | LD50 at 168 h [3] [mg/kg] | Antihypertensive effect, maximum decrease ([2]; dose 10 mg/kg) [%] | Antihypertensive effect, maximum decrease ([2]; dose 20 mg/kg) [%]
1 | CC1=C(C(=O)OCCCN2CCN(C(c3ccc(F)cc3)c3ccc(F)cc3)CC2)C(c2cccc(Cl)c2Cl)C(P2(=O)OCC(C)(C)CO2)=C(C)N1 (centres unmarked) [Dihydrochloride of Example 3] | 1.74e-07 | 36 | > 400 | – | –
2 | CC1=C(C(=O)OC(C)CN(Cc2ccccc2)c2ccccc2)C(c2cccc(Cl)c2Cl)C(P2(=O)O[C@H](C)C[C@@H](C)O2)=C(C)N1 (some centres unmarked) [Hydrochloride of Example 6] | 1.05e-07 | – | > 300 | 28 | –
3 | CC1=C(C(=O)OCCN(Cc2ccccc2)c2ccccc2)C(c2cccc([N+](=O)[O-])c2)C(P2(=O)O[C@H](C)C[C@@H](C)O2)=C(C)N1 (some centres unmarked) [Hydrochloride of Example 7] | 6.76e-09 | 34 | > 600 | – | –
4 | CC1=C(C(=O)OCCN(Cc2ccccc2)c2ccccc2)C(c2cccc([N+](=O)[O-])c2)C(P2(=O)OCC(C)(C)CO2)=C(C)N1 (centres unmarked) [Hydrochloride of Example 1] | 6.76e-09 | 36 | > 600 | – | –
5 | CC1=C(C(=O)OCCN2CCN(C(c3ccccc3)c3ccccc3)CC2)C(c2cccc(Cl)c2Cl)C(P2(=O)OCC(C)(C)CO2)=C(C)N1 (centres unmarked) [Dihydrochloride of Example 2] | 9.77e-08 | – | > 400 | 37 | –
6 | CC1=C(C(=O)OC(C)CN(Cc2ccccc2)c2ccccc2)C(c2cccc([N+](=O)[O-])c2)C(P2(=O)OC(C)(C)CC(C)(C)O2)=C(C)N1 (centres unmarked) [Hydrochloride of Example 4] | 1.26e-07 | – | > 300 | – | 38
7 | CC1=C(C(=O)OCCN(Cc2ccccc2)c2ccccc2)C(c2cccc([N+](=O)[O-])c2)C(P2(=O)OC(C)(C)CC(C)(C)O2)=C(C)N1 (centres unmarked) [Hydrochloride of Example 5] | – | – | > 300 | 40 | –
